Data on 4 molecules can be found in paper PMC8399565, “Fluorescence Cross-Correlation Spectroscopy Yields True Affinity and Binding Kinetics of Plasmodium Lactate Transport Inhibitors” (Pharmaceuticals, 2021).

In one experiment the target is T1, PfFNT G107S-GFP (Plasmodium falciparum, UniProt O77389, G107S).
T1 construct: The DNA of full-length PfFNT from Plasmodium falciparum 3D7 was cloned as a C-terminal GFP fusion; expressed in transfected cells; intact cells for imaging, LMNG-solubilized membranes for FCCS
T1 sequence (O77389 whole entry G107S, the tested form may be a part): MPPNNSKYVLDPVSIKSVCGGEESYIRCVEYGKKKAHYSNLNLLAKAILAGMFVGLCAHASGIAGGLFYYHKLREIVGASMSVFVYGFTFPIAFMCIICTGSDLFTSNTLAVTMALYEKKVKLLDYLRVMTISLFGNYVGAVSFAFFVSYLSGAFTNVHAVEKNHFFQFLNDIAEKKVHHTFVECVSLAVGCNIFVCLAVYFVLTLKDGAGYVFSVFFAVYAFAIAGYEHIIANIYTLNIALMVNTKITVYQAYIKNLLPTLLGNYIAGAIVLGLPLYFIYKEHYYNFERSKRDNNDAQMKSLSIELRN
As to the kind of experiment: FCCS equilibrium saturation binding to solubilized PfFNT G107S mutant. How it is done: Next, we determined inhibitor binding affinities for both PfFNT and its G107S mutant. Solubilized cell membranes containing PfFNT-GFP at a concentration of 10 nM were incubated for 1 h at ambient temperature with increasing concentrations of labeled inhibitor molecules to obtain saturation binding curves and to calculate the dissociation constant (KD) of the interactions. Equilibrium binding experiments were pipetted in biological triplicates and carried out and analyzed as described in Antoine et al..
We next performed equilibrium saturation binding assays to assess the binding of both tracers to the mutant PfFNT G107S.
A cell pellet was resuspended in 1 mL of ice-cold TBS (50 mM Tris-HCl (pH 7.4) and 150 mM NaCl) supplemented with cOmplete™ Protease Inhibitor Cocktail (cat. no 11697498001, Roche, Switzerland) and broken by sonication on ice, using an Ultrasonic homogenizer SONOPULS HD 2070 (Bandelin, Germany). Cell debris was removed by centrifugation for 5 min at 1100× g at 4 °C, and membranes were harvested from the cleared lysate by subsequent centrifugation at 21,000× g. The resulting pellet containing cellular membranes was lysed using a Dounce homogenizer. The receptor was solubilized by incubation in 1% LMNG (cat. no NG310, Anatrace, USA) or in another detergent (DDM, DM, CHAPS, CHS, LDAO) when conducting tests to determine the best solubilization conditions. The insolubilized membrane material was removed by centrifugation for 1 h at 21,000× g at 4 °C, and the supernatant was collected and directly subjected to FCCS analysis or stored at −80 °C.
(§1) FCCS measurements were conducted in 384-well glass-bottom plates (cat. no PS96B-G175, SWISSCI, Switzerland) using an Insight plate reader (Evotec Technologies, Germany) fitted with a U-Apo300 40x water immersion lens, NA 1.15 (Olympus, Japan). The 488 nm laser line of an argon-ion laser and the light of a 633 nm helium–neon laser were used for excitation. Fluorescence fluctuations were recorded for 8 s with 12 repetitions and analyzed afterward using FCS+plus Analyze 1.1P (Evotec technologies, Version 1.2.5g). FCCS analysis was carried out as described previously. Briefly, for measuring the dissociation constant (KD), a titration series of 12 dilutions was prepared, where the concentration of the lysates obtained from HEK cells expressing GFP-fusions of PfFNT WT and G107S was kept constant, and the concentration of the labeled binding partner (BH296-DY647 and BH267.meta-DY647, respectively) was varied. The IC50 values were calculated by plotting the concentration from the dual labeled complex against the concentration of the competitor titrated over a concentration range from 10 µM to 10 pM. Samples were incubated for 1 h at room temperature prior to FCCS measurements to allow the formation of drug target complexes. From the resulting IC50 values, the Ki values were obtained by application of the Cheng Prusoff equation [17]. To assess the rate constants, time-resolved measurements were carried out at different concentrations of the labeled ligand. […] All KD and IC50 values, as well as kinetic parameters, were determined from three independently repeated experiments. The figures show one representative measurement; however, the calculated KD, Ki, kon and koff values are presented as an average of the three measurements ± SD. Error bars denote ± SEM.

The target in another experiment is T2, PfFNT-GFP (Plasmodium falciparum, UniProt O77389).
T2 construct: The DNA of full-length PfFNT from Plasmodium falciparum 3D7 was cloned as a C-terminal GFP fusion; expressed in transfected cells; intact cells for imaging, LMNG-solubilized membranes or lysates for FCCS
T2 sequence (O77389 whole entry, the tested form may be a part): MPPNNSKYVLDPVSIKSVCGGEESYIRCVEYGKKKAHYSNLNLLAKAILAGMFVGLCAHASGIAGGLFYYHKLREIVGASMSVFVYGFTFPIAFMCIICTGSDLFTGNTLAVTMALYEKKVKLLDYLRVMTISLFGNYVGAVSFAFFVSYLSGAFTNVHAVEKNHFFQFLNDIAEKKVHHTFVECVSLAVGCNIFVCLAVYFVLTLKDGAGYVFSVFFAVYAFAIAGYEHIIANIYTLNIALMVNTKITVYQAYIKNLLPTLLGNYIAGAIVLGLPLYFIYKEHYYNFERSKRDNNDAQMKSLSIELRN
As to the kind of experiment: Live cell confocal imaging, co-localization with PfFNT-GFP in HEK293 cells. The following applies: for co-localization / membrane localization: probe after 0.05% Triton X-100 permeabilization, 0.5-5 min. Type of experiment: cell-based. How it is done: BH296-DY647 was added at a concentration of 50 nM to cultured HEK cells stably expressing PfFNT-GFP to test for co-localization of the compound with the target at the plasma membrane by confocal imaging. […] As the cytoplasmic domain of the transporter is inaccessible for the compound, we next explored possibilities to permeabilize the plasma membrane and to retain cell viability for the time of incubation. For this, we used Triton X-100 at a final concentration of 0.05%, as described previously to allow for diffusion of compounds into the cell. […] A prolonged incubation was impeded by incipient cell disintegration and membrane blebbing. We next set out to test the specificity of binding by analyzing the interaction of labeled BH296 with its unlabeled parental compound.
The confocal laser scanning microscopy was performed on an LSM 510 confocal microscope connected to an Axiovert 200M equipped with a C-Apochromat 40×/1.2 W water immersion objective (Carl Zeiss, Germany). The red fluorophore (Dy-647) was excited using a 633 nm helium–neon laser, whereas the green fluorophore (GFP) was excited using a 488 nm argon-ion laser.

A further experiment deals with T3, PfFNT wt-GFP (Plasmodium falciparum, UniProt O77389).
T3 construct: The DNA of full-length PfFNT from Plasmodium falciparum 3D7 was cloned as a C-terminal GFP fusion; expressed in transfected cells; intact cells for imaging, LMNG-solubilized membranes or lysates for FCCS
T3 sequence (O77389 whole entry, the tested form may be a part): as above
Put plainly: Time-resolved FCCS binding kinetics. The method, then:
To complete our biophysical interaction analysis, we determined the rate constants of both labeled inhibitors to PfFNT wildtype. This is of relevance because inhibitors with similar affinities but different association and dissociation rates can show different activity profiles. […] For measuring the kinetics of direct interactions between PfFNT and the labeled inhibitor molecules, we applied the target at a concentration of 10 nM and chose ligand concentrations that exceeded the number of target molecules by […]. In this way, we ensured that throughout the course of the kinetic measurement, the depletion of free ligands remained insignificant. First, time resolved binding curves were recorded for ligand concentrations of 148, 133, 115, 100, 81, 76, 44, 25 nM (BH296) and 120, 102, 76, 74, 65, 58, 46, 32 nM (BH267.meta), respectively, to obtain kobs values (Figure 5). Then kon and koff values were calculated by linear regression. Both inhibitors bind and dissociate with equal rate constants (Table 3) and are characterized by a rapid association. Equilibrium is reached within less than 1 min at nanomolar inhibitor concentrations. To cross-validate the reliability of our kinetic determinations, we compared the KD values derived from saturation binding assays with affinities deduced from the kinetic rate constants by dividing koff by kon.
Figure 5 Kinetic studies of the fluorescent probes BH296-DY647 and BH267.meta-DY647 with PfFNT-GFP by FCCS. Time resolved measurements of the interactions were carried out to obtain kobs-values. The kobs-values were plotted versus concentrations of the fluorescent probe. The solid line represents the best linear regression, and kon and koff of both fluorescent probes were estimated from the slope and y-intercept, respectively. kon and koff values of BH296-DY647 and BH267.meta-DY647 are summarized in Table 3.
as §1

Setting [1] is: fluorescent probe titrated against solubilized PfFNT G107S-GFP.

“Also recorded” adds a separate entry of the source. Read-outs that look alike come from different tables or passages of the source.

Take `O=C(C=C(O)C(F)(F)C(F)(F)F)c1ccc(O)cc1` [BH296, 4,4,5,5,5-pentafluoro-3-hydroxy-1-(4-hydroxyphenyl)pent-2-en-1-one]: on PfFNT G107S-GFP (setting [1]), the “KD (equilibrium saturation binding)” value was “failed to bind within detection limits”. In addition, the “competition of labeled tracer binding by unlabeled compound” value on PfFNT-GFP (preincubation with 100 µM unlabeled compound, tracer BH296-DY647) is “prevented binding of the labeled tracer; also recorded: completely abrogated binding”. The molecule further showed a Kd on PfFNT wt-GFP of 113 nM.
Regarding `CCN1/C(=C/C=C/C=C/C2=[N+](CC)c3ccc(S(=O)(=O)O)cc3C2(C)CCCC(=O)NCCOCCOCCOCCOCCC(=O)NCCCOc2ccc(C(=O)/C=C(\O)C(F)(F)C(F)(F)F)cc2)C(C)(C)c2cc(S(=O)(=O)[O-])ccc21` (stereo not shown) [BH296-DY647], the Kd on PfFNT G107S-GFP was greater than 2000 nM. Moreover, the “KD (equilibrium saturation binding)” value at PfFNT G107S-GFP (setting [1]) is recorded as “no affinity above background”. For the same molecule, on PfFNT-GFP (50 nM probe, absence of Triton X-100, up to 1 h), the “co-localization / binding at plasma membrane” value is “No co-localization; also recorded: could not be observed”. Besides, the “co-localization / membrane localization” value on PfFNT-GFP is “clearly visible”. Further, on PfFNT wt-GFP, the Kd amounted to 113 ± 2 nM, the koff was 0.0311 s⁻¹ and the kon is 278000 M⁻¹ s⁻¹.
On to `O=C(/C=C(\O)C(F)(F)C(F)(F)F)c1cccnc1` [BH267.meta], for which the Kd on PfFNT G107S-GFP (fluorescent probe titrated against solubilized PfFNT G107S-GFP, read-out: KD (equilibrium saturation binding)) is 405 nM; at PfFNT wt-GFP (koff divided by kon, read-out: KD (Kinetics)) it was 112 nM. For the same molecule, the “co-localization / membrane localization” value on PfFNT-GFP is “binds efficiently”.
In turn, `CCN1/C(=C/C=C/C=C/C2=[N+](CC)c3ccc(S(=O)(=O)O)cc3C2(C)CCCC(=O)NCCOCCOCCOCCOCCC(=O)NCCCOc2ccc(C(=O)/C=C(\O)C(F)(F)C(F)(F)F)cn2)C(C)(C)c2cc(S(=O)(=O)[O-])ccc21` (stereo not shown) [BH267.meta-DY647] came in with a Kd at PfFNT G107S-GFP of 405 nM. Besides, the “Active Receptor (%)” value at PfFNT G107S-GFP (fraction of PfFNT G107S-GFP involved in binding at saturation) was “n.d. 100%”. For the same molecule, the “co-localization / membrane localization” value at PfFNT-GFP is “localizes with PfFNT wildtype”. Further, at PfFNT wt-GFP, the Kd amounted to 112 ± 5 nM, the koff was 0.0297 s⁻¹ and the kon is 268000 M⁻¹ s⁻¹.

For orientation: koff means the first-order rate constant of dissociation. Low readings indicate a long-lived complex, high ones a short-lived complex. The term kon denotes the rate constant with which the complex forms. Read a low kon as slower complex formation.
